According to patent publication US8921420B2, “Method for preparing dicaffeoylquinic acids and use thereof in combating aphids” (Institut National de la Recherche Agronomique, priority 2008, dated 2014):

Experiments:
[1] = test system: Myzus persicae; test: Toxicity test on larval development on Ap3 feeding medium (larval mortality, weight of wingless adults); format: in vivo
Procedure: The goal is to quantify the toxic effect of 3,5-diCQ on the aphid throughout its larval development, namely 8 to 10 days for Myzus persicae at 19° C. The molecule is added at various concentrations to the Ap3 feeding medium.
(§1) The medium ([…]) is poured between two UV-sterilized Parafilm® membranes and drawn onto a cylindrical support made of PVC (h=1.5 cm, d=2 cm), under sterile conditions. On Day D0, 20 neonate larvae are placed inside the cylinder, which is then turned over and pressed onto a square of Parafilm®. The dishes are placed under dimmed light (16 hr day/8 hr night) and in an enclosure set at 19° C. The fixation percentage is recorded after 1 hour as a short-term phagostimulation indicator and in order to verify that no anomaly had occurred when the aphids were placed inside the cylinder. Larval mortality is noted daily at the end of the day. On Day D+3, the larvae are sampled and split up into two new dishes. On the day of their adult molt, the aphids that have reached the wingless adult stage are deposited successively onto a precision scale (d=0.01 mg) and the cumulative weights are recorded for each concentration of each tested molecule. Individual weights are calculated thereafter. The effects of a single molecule at all concentrations and the effects of the control medium are evaluated simultaneously during the same test. The tests are routinely performed in 3 repetitions.

[2] = test system: Myzus persicae; test: Selection test between two media (phagostimulation index, repulsivity); format: in vivo; details: for concentration at which the repulsive effect (negative phagostimulation index) is significant: tested against Ap3 medium, lowest concentration tested 0.25 mM; for concentration at which significantly repulsive: against Ap3 control medium
Excerpt: The method used is the one developed by Yvan Rahbé (Rahbé & Febvay (1993) Entomologia Experimentalis et Applicata 67: 149-160; Chen (1996) Thesis, Institut National des Sciences Appliquées, Lyon, France: 158 pp.) in the context of research on the chemical determinants of plant resistance to various aphid species (Aphis gossypii, Acyrthosiphon pisum), and adapted to the green peach aphid, Myzus persicae.
(§2) The goal is to evaluate the attractive or repulsive character of a candidate molecule, at various concentrations, either in relation to a control base medium or in relation to another substance. The base medium used, referred to as Ap3 (composition in the table in FIG. 10), was developed at the UMR INRA-INSA in Lyon in order to enable optimal development of the Acyrtosiphon pisum aphid species (Febvay et al. (1988) Canadian Journal of Zoology 66: 2149-2453). It also enables the development of Myzus persicae. This base medium may or may not be supplemented by the various phenolic acids tested. The aphid's selected behavior when placed in the presence of both media is studied inside a closed system where the insect has no alternative in order to feed itself but to select one of the two media. The device is shown in diagram form in FIG. 11.
The medium (35 μl) is poured between two Parafilm® membranes stretched onto an Eppendorf® cone. On a rack holding 6 experiment cages, a control medium is arranged opposite a test medium on each cage. The repetitions of a single modality (control medium or test medium) are arranged in alternating fashion along the rack, in order to prevent any systematic bias when the aphids are placed inside. At the end of the day, six aphid larvae (second or third stage) are placed inside each of the cages of one rack. Next, the racks are inserted into a black box placed inside a climate-controlled test chamber at 19° C. for 15 hours. This passage into darkness stabilizes the larvae's fixation more quickly. The following morning, the number of aphids fixed on each medium is recorded. The tests are performed in routine fashion on 24 selection repetitions (4 racks with 6 cages each). A phagostimulation index, representing the degree of desire for the aphid in the test medium, is calculated as follows: Phagostimulation index=(Test no.−Control no.)/Total no., wherein:
Test no.=Number of aphids fixed on the test medium,
Control no.=Number of aphids fixed on the control medium,
Total no.=Total number of fixed aphids.
Consequently, the value of the index ranges from −1 to 1. A negative index means that the test medium is repulsive in relation to the control medium, and a positive index means that the test medium is attractive. The hypothesis that the effect of the test medium is identical to that of the control medium is examined by the Wilcoxon rank test.
The tested phenolic substances other than 3,5-diCQ are of commercial origin apart from the caffeic acid methyl ester, which was synthesized. The molecules were characterized by mass spectrometry and proton nuclear magnetic resonance. The amount and stability of the dissolved molecules are monitored by HPLC after the molecules are dissolved in the Ap3 medium, at the beginning and at the end of the experiment.

[3] = test system: Macrosiphum euphorbiae; test: Selection test (phagorepulsive effect), first-stage larvae; format: in vivo; details: FIG. 23
Excerpt: as §2
(§3) The medium (35 μl) is poured between two Parafilm® membranes stretched onto an Eppendorf® cone. On a rack holding 6 experiment cages, a control medium is arranged opposite a test medium on each cage. […] The following morning, the number of aphids fixed on each medium is recorded. […] A phagostimulation index, representing the degree of desire for the aphid in the test medium, is calculated as follows: Phagostimulation index=(Test no.−Control no.)/Total no., wherein: […]

[4] = test system: Macrosiphum euphorbiae; test: Toxicity test during larval development; format: in vivo; details: FIG. 24
Procedure: as §1
(§4) Regarding the toxicity tests, no changes were made to the protocol for tests on Macrosiphum euphorbiae. However, given the size and sensitivity to stress of Acyrthosiphon pisum, the number of individuals per dish was changed to 10, the number of repetitions per tested dose was changed to 4, and no change was made to the medium during the test, as excessive disturbance of the aphids would have resulted from doing so.

[5] = test system: Acyrtosiphon pisum; test: Toxicity test during larval development; format: in vivo; details: FIG. 22
Procedure: as §1, §4

[6] = test system: chewing insects; details: Tamura et al. 2004; Mullin et al. 1991; cited from earlier work
[7] = test system: Acyrtosiphon pisum; test: Selection test (phagorepulsive effect), first-stage larvae; format: in vivo, Acyrthosiphon pisum; details: FIG. 21
Excerpt: as §2, §3

[8] = FIG. 15, range 0.03125 to 1 mM, against Ap3

In the case of `O=C(/C=C/c1ccc(O)c(O)c1)O[C@@H]1C[C@@](OC(=O)/C=C/c2ccc(O)c(O)c2)(C(=O)O)C[C@@H](O)[C@@H]1O` [cynarin], the “effect on the aphids' weights (in words)” value ([1]; FIG. 20, at the 0.25 mM dose) is reported as “no effect” and the “concentration at which the repulsive effect (negative phagostimulation index) is significant” value ([2]; FIG. 12) is reported as 1 mM.
For `O=C(/C=C/c1ccc(O)c(O)c1)O[C@H]1[C@H](O)C[C@](O)(C(=O)O)C[C@H]1OC(=O)/C=C/c1ccc(O)c(O)c1` [4,5-diCQ, 4,5-dicaffeoylquinic acid], the “dose with significant depressive effect on weight of wingless adults” value ([1]; FIG. 20) was 0.25 mM, the “toxic effect on larval development (in words)” value ([1]; in vivo) was “toxic activity” and the “dose starting at which significant repulsive effects were detected” value [2, 8] was 0.03125 mM. The “dose with highly significant repulsive effect” value [2, 8] was 0.125 mM and the “repulsive effect / activity (in words)” value ([2]; in vivo) was “repulsive activity”.
For `O=C(/C=C/c1ccc(O)c(O)c1)O[C@@H]1CC(O)(C(=O)O)C[C@@H](OC(=O)/C=C/c2ccc(O)c(O)c2)C1O` (stereo partly drawn) [3,5-diCQ, 3,5-dicaffeoylquinic acid], the “toxic effect at 0.03125 mM (in words)” value ([1]; 0.03125 mM) was “no toxic or repulsive effect”, the “reaching the wingless adult stage” value ([1]; 1 and 2 mM concentrations) was “no aphids reached the wingless adult stage” and the larval mortality ([1]; FIG. 16, at 2 mM) was ~100%. The “dose starting at which significant depressive effect on weight of wingless adults” value ([1]; FIG. 17) was 0.25 mM, the “dose with significant depressive effect on weight of wingless adults” value ([1]; FIG. 20) was 0.5 mM and the “toxic effect on larval development (in words)” value ([1]; in vivo) was “high mortality”. For the same compound, the “toxic effect on larval development (in words)” value ([1]; in vivo, listed as 3,5-dicaffeoylquinic acid) was “toxic activity”, the “dose starting at which highly significant repulsive effect” value [3] was 0.125 mM and the mortality ([4]; 0.25 mM dose, within 6 days) was ~100%. The mortality ([4]; 0.5 and 1 mM doses, within 3 to 7 days) was 100%, the mortality ([5]; starting at 0.03125 mM, within 2 days) was “exceeds 50%” and the mortality ([5]; starting at 0.25 mM, within 4 days) was 100%. For the same compound, the “effect on feeding of chewing insects (in words)” value [6] was “phagostimulating effect”, the “dose starting at which significant repulsive effect” value [7] was 0.03125 mM and the “repulsive effect at 0.03125 mM (in words)” value ([2]; 0.03125 mM) was “no toxic or repulsive effect”. The “concentration at which significantly repulsive” value ([2]; FIG. 13) was 0.125 mM, the “choice between 3,5-diCQ and chlorogenic acid at a single molarity” value ([2]; FIG. 13, tested against each other, at 0.125 mM) was “systematically selects CA rather than 3,5-diCQ” and the “repulsive effect of 0.5 mM versus chlorogenic acid at 2 mM” value ([2]; FIG. 14, pH 7.5, CA four times higher) was “remains repulsive”. For the same compound, the “dose with highly significant repulsive effect” value [2, 8] was 0.125 mM, the “minimum concentration at which repulsive effect is detectable” value ([2]; in vivo) was 125 µM and the “repulsive effect / activity (in words)” value ([2]; in vivo) was “repulsive activity”. The “minimum concentration at which repulsive effect is detectable” value ([2]; same value converted) was 64.5 mg/L.
For `O=C(/C=C/c1ccc(O)c(O)c1)O[C@@H]1C[C@](O)(C(=O)O)C[C@@H](O)[C@H]1O` [chlorogenic acid, 5-caffeoylquinic acid, reference compound], the “effect on weight of wingless adults (in words)” value ([1]; FIG. 18) was “probiotic effect”, the larval mortality ([1]; in vivo) was ≤ 10% and the “toxic effect on larval development (in words)” value ([1]; in vivo) was “no negative effects”. For the same compound, the “concentration at which the repulsive effect (negative phagostimulation index) is significant” value ([2]; FIG. 12) was 0.5 mM and the “concentration at which significantly repulsive” value ([2]; FIG. 13) was 0.25 mM.
With `O=C(/C=C/c1ccc(O)c(O)c1)O[C@@H]1C[C@](OC(=O)/C=C/c2ccc(O)c(O)c2)(C(=O)O)C[C@@H](O)[C@H]1O` [1,5-diCQ, 1,5-dicaffeoylquinic acid] the “toxic effect on larval development (in words)” value ([1]; in vivo) was “toxic activity”.
In the case of `O=C(O)/C=C/c1ccc(O)cc1` [Para-coumaric acid, para-coumaric acid, reference compound], the “repulsive effect (in words)” value ([2]; FIG. 12, concentration range tested, against Ap3 medium) is reported as “no repulsive effect”.
